Results taken from patent publication US11267825B2 (AICURIS GMBH & CO. KG, priority 2017, dated 2022).
pEC50: −log10 of the molar value. Counter-ions that a name gives are not always drawn.

The compounds below were run on HBV (assay: Determination of HBV DNA from the supernatants of HepAD38 cells (anti-HBV activity)). Settings: Hepatitis B virus, 144 h; HBV DNA in HepAD38 supernatant at day 6; read-out: Cell Activity (EC50).
Type: cell-based, hepatitis B virus
Protocol: Determination of HBV DNA from the Supernatants of HepAD38 Cells
The anti-HBV activity was analysed in the stable transfected cell line HepAD38, which has been described to secrete high levels of HBV virion particles (Ladner et al., 1997). In brief, HepAD38 cells were cultured at 37° C. at 5% CO2 and 95% humidity in 200 μl maintenance medium, which was Dulbecco's modified Eagle's medium/Nutrient Mixture F-12 (Gibco, Karlsruhe), 10% fetal bovine serum (PAN Biotech Aidenbach) supplemented with 50 μg/ml penicillin/streptomycin (Gibco, Karlsruhe), 2 mM L-glutamine (PAN Biotech, Aidenbach), 400 μg/ml G418 (AppliChem, Darmstadt) and 0.3 μg/ml tetracycline. Cells were subcultured once a week in a 1:5 ratio, but were usually not passaged more than ten times. For the assay 60,000 cells were seeded in maintenance medium without any tetracycline into each well of a 96-well plate and treated with serial half-log dilutions of test compound. To minimize edge effects the outer 36 wells of the plate were not used but were filled with assay medium. On each assay plate six wells for the virus control (untreated HepAD38 cells) and six wells for the cell control (HepAD38 cells treated with 0.3 μg/ml tetracycline) were allocated, respectively. In addition, one plate set with reference inhibitors like BAY 41-4109, entecavir, and lamivudine instead of screening compounds were prepared in each experiment. In general, experiments were performed thrice in triplicates. At day 6 HBV DNA from 100 μl filtrated cell culture supernatant (AcroPrep Advance 96 Filter Plate, […] Supor membran, PALL GmbH, Dreieich) was automatically purified on the MagNa Pure LC instrument using the MagNA Pure 96 DNA and Viral NA Small Volume Kit (Roche Diagnostics, Mannheim) according to the instructions of the manufacturer. EC50 values were calculated from relative copy numbers of HBV DNA. In brief, 5 μl of the 100 μl eluate containing HBV DNA were subjected to PCR LC480 Probes Master Kit (Roche) together with 1 μM antisense primer […], 0.5 μM sense primer […], 0.3 μM hybprobes […]-FL and LC640-[…]-PH (TIBMolBiol, Berlin) to a final volume of 12.5 μl. The PCR was performed on the Light Cycler 480 real time system (Roche Diagnostics, Mannheim) using the following protocol: Pre-incubation for 1 min at 95° C., amplification: 40 cycles×(10 sec at 95° C., 50 sec at 60° C., 1 sec at 70° C.), cooling for 10 sec at 40° C. Viral load was quantitated against known standards using HBV plasmid DNA of pCH-9/3091 (Nassal et al., 1990, Cell 63: 1357-1363) and the LightCycler 480 SW 1.5 software (Roche Diagnostics, Mannheim) and EC50 values were calculated using non-linear regression with GraphPad Prism 6 (GraphPad Software Inc., La Jolla, USA).
For CCc1c(F)ccc2[nH]c(C(=O)N3CCc4nc(NCC5CCOC5)sc4C3)cc12 (stereo not drawn) [Example 256, 5-(4-ethyl-5-fluoro-1H-indole-2-carbonyl)-N-[(oxolan-3-yl)methyl]-4H,5H,6H,7H-[1,3]thiazolo[5,4-c]pyridin-2-amine], the pEC50 was > 4.00.
With COCC1(Nc2nc3c(s2)CN(C(=O)c2cc4ccccc4[nH]2)CC3)CCC1 [Example 347, 5-(1H-indole-2-carbonyl)-N-[1-(methoxymethyl)cyclobutyl]-4H,5H,6H,7H-[1,3]thiazolo[5,4-c]pyridin-2-amine] the pEC50 was > 6.00.
In the case of Cc1cc(F)cc2[nH]c(C(=O)N3CCc4nc(NC(=O)C5(C)CC5)sc4C3)cc12 [Example 307, N-[5-(6-fluoro-4-methyl-1H-indole-2-carbonyl)-4H,5H,6H,7H-[1,3]thiazolo[5,4-c]pyridin-2-yl]-1-methylcyclopropane-1-carboxamide], the pEC50 was > 6.00.
For CC1(C(=O)Nc2nc3c(s2)CN(C(=O)c2cc4c(Cl)cccc4[nH]2)CC3)CC1 [Example 308, N-[5-(4-chloro-1H-indole-2-carbonyl)-4H,5H,6H,7H-[1,3]thiazolo[5,4-c]pyridin-2-yl]-1-methylcyclopropane-1-carboxamide], the pEC50 was > 6.00.
In the case of O=C(c1cc2ccccc2[nH]1)N1CCc2nc(NC(=O)C3(F)CC3)sc2C1 [Example 337, 1-fluoro-N-[5-(1H-indole-2-carbonyl)-4H,5H,6H,7H-[1,3]thiazolo[5,4-c]pyridin-2-yl]cyclopropane-1-carboxamide], the pEC50 was > 6.00.
CCOC(=O)C1(CNc2nc3c(s2)CN(C(=O)c2cc4ccccc4[nH]2)CC3)CC1 [Example 317, Ethyl 1-({[5-(1H-indole-2-carbonyl)-4H,5H,6H,7H-[1,3]thiazolo[5,4-c]pyridin-2-yl]amino}methyl)cyclopropane-1-carboxylate] showed a pEC50 of 5.00 to 6.00.
O=C(c1cc2ccccc2[nH]1)N1CCc2nc(NC34CC(C3)C4)sc2C1 [Example 431, N-{bicyclo[1.1.1]pentan-1-yl}-5-(1H-indole-2-carbonyl)-4H,5H,6H,7H-[1,3]thiazolo[5,4-c]pyridin-2-amine] was tested, and the pEC50 was > 6.00.
For CC1(C(=O)Nc2nc3c(s2)CN(C(=O)c2cc4c(Cl)cc(F)cc4[nH]2)CC3)CC1 [Example 305, N-[5-(4-chloro-6-fluoro-1H-indole-2-carbonyl)-4H,5H,6H,7H-[1,3]thiazolo[5,4-c]pyridin-2-yl]-1-methylcyclopropane-1-carboxamide], the pEC50 was > 6.00.
With CC(C)CC(CO)CNc1nc2c(s1)CN(C(=O)c1cc3ccccc3[nH]1)CC2 (stereo not drawn) [Example 287, 2-({[5-(1H-indole-2-carbonyl)-4H,5H,6H,7H-[1,3]thiazolo[5,4-c]pyridin-2-yl]amino}methyl)-4-methylpentan-1-ol] the pEC50 was > 6.00.
CC(=O)N1CC(C(=O)Nc2nc3c(s2)CN(C(=O)c2cc4ccccc4[nH]2)CC3)C1 [Example 382, 1-acetyl-N-[5-(1H-indole-2-carbonyl)-4H,5H,6H,7H-[1,3]thiazolo[5,4-c]pyridin-2-yl]azetidine-3-carboxamide] was tested, and the pEC50 was > 6.00.
In the case of O=C(c1cc2ccccc2[nH]1)N1CCc2nc(NCCn3ccnc3)sc2C1 [Example 349, N-[2-(1H-imidazol-1-yl)ethyl]-5-(1H-indole-2-carbonyl)-4H,5H,6H,7H-[1,3]thiazolo[5,4-c]pyridin-2-amine], the pEC50 was > 6.00.
With CC(O)c1ccc(F)c2[nH]c(C(=O)N3CCc4nc(NCC5CCOC5)sc4C3)cc12 (stereo not drawn) [Example 257, 1-[7-fluoro-2-(2-{[(oxolan-3-yl)methyl]amino}-4H,5H,6H,7H-[1,3]thiazolo[5,4-c]pyridine-5-carbonyl)-1H-indol-4-yl]ethan-1-ol] the pEC50 was > 4.00.
For O=C(c1cc2cc(F)c(F)cc2[nH]1)N1CCc2nc(NCC3(O)CCC3)sc2C1 [Example 369, 1-({[5-(5,6-difluoro-1H-indole-2-carbonyl)-4H,5H,6H,7H-[1,3]thiazolo[5,4-c]pyridin-2-yl]amino}methyl)cyclobutan-1-ol], the pEC50 was > 6.00.
O=C(c1cc2ccccc2[nH]1)N1CCc2nc(NCC3(C(=O)O)CC3)sc2C1 [Example 345, 1-({[5-(1H-indole-2-carbonyl)-4H,5H,6H,7H-[1,3]thiazolo[5,4-c]pyridin-2-yl]amino}methyl)cyclopropane-1-carboxylic acid] was tested, and the pEC50 was 5.00 to 6.00.
With O=C(c1cc2ccccc2[nH]1)N1CCc2nc(N[C@H]3CCC[C@@H](O)C3)sc2C1 [Example 350, (1R,3S)-3-{[5-(1H-indole-2-carbonyl)-4H,5H,6H,7H-[1,3]thiazolo[5,4-c]pyridin-2-yl]amino}cyclohexan-1-ol] the pEC50 was > 6.00.
For N#CC12CC(Nc3nc4c(s3)CN(C(=O)c3cc5ccccc5[nH]3)CC4)(C1)C2 [Example 435, 3-{[5-(1H-indole-2-carbonyl)-4H,5H,6H,7H-[1,3]thiazolo[5,4-c]pyridin-2-yl]amino}bicyclo[1.1.1]pentane-1-carbonitrile], the pEC50 was > 6.00.
In the case of CC(C)c1cccc2[nH]c(C(=O)N3CCc4nc(NCC5(O)CCC5)sc4C3)cc12 [Example 368, 1-[({5-[4-(propan-2-yl)-1H-indole-2-carbonyl]-4H,5H,6H,7H-[1,3]thiazolo[5,4-c]pyridin-2-yl}amino)methyl]cyclobutan-1-ol], the pEC50 was > 6.00.
O=C(c1cc2ccccc2[nH]1)N1CCc2nc(Cl)sc2C1 [Example 207, 2-{2-chloro-4H,5H,6H,7H-[1,3]thiazolo[5,4-c]pyridine-5-carbonyl}-1H-indole] was tested, and the pEC50 was > 4.00.
O=C(c1cc2c(C(F)(F)F)cccc2[nH]1)N1CCc2nc(NCC3(O)CCC3)sc2C1 [Example 374, 1-[({5-[4-(trifluoromethyl)-1H-indole-2-carbonyl]-4H,5H,6H,7H-[1,3]thiazolo[5,4-c]pyridin-2-yl}amino)methyl]cyclobutan-1-ol] was tested, and the pEC50 was > 6.00.
In the case of O=C(c1cc2ccccc2[nH]1)N1CCc2nc(NCC(F)(F)C3CC3)sc2C1 [Example 436, N-(2-cyclopropyl-2,2-difluoroethyl)-5-(1H-indole-2-carbonyl)-4H,5H,6H,7H-[1,3]thiazolo[5,4-c]pyridin-2-amine], the pEC50 was > 6.00.
O=C(Nc1nc2c(s1)CN(C(=O)c1cc3c(F)c(F)ccc3[nH]1)CC2)C1CCOCC1 [Example 398, N-[5-(4,5-difluoro-1H-indole-2-carbonyl)-4H,5H,6H,7H-[1,3]thiazolo[5,4-c]pyridin-2-yl]oxane-4-carboxamide] was tested, and the pEC50 was > 6.00.
With Cc1c(F)ccc2[nH]c(C(=O)N3CCc4nc(N)sc4C3)cc12 [Example 437, 5-(5-fluoro-4-methyl-1H-indole-2-carbonyl)-4H,5H,6H,7H-[1,3]thiazolo[5,4-c]pyridin-2-amine] the pEC50 was > 6.00.
For CCc1cc(F)cc2[nH]c(C(=O)N3CCc4nc(NC(=O)C5(C)CC5)sc4C3)cc12 [Example 306, N-[5-(4-ethyl-6-fluoro-1H-indole-2-carbonyl)-4H,5H,6H,7H-[1,3]thiazolo[5,4-c]pyridin-2-yl]-1-methylcyclopropane-1-carboxamide], the pEC50 was > 6.00.
O=C(c1cc2ccccc2[nH]1)N1CCc2nc(N[C@@H]3CCCC[C@@H]3O)sc2C1 [Example 348, (1S,2R)-2-{[5-(1H-indole-2-carbonyl)-4H,5H,6H,7H-[1,3]thiazolo[5,4-c]pyridin-2-yl]amino}cyclohexan-1-ol] was tested, and the pEC50 was > 6.00.
For O=C(c1cc2c(Cl)cc(F)cc2[nH]1)N1CCc2nc(N[C@H]3CC[C@@H](O)CC3)sc2C1 [Example 343, (1s,4s)-4-{[5-(4-chloro-6-fluoro-1H-indole-2-carbonyl)-4H,5H,6H,7H-[1,3]thiazolo[5,4-c]pyridin-2-yl]amino}cyclohexan-1-ol], the pEC50 was > 6.00.
With CC1(C(=O)Nc2nc3c(s2)CN(C(=O)c2cc4cc(F)c(Cl)cc4[nH]2)CC3)CC1 [Example 304, N-[5-(6-chloro-5-fluoro-1H-indole-2-carbonyl)-4H,5H,6H,7H-[1,3]thiazolo[5,4-c]pyridin-2-yl]-1-methylcyclopropane-1-carboxamide] the pEC50 was > 6.00.

Same assay, conditions: Hepatitis B virus, HePAD38, 144 h, read-out: Cell Activity (EC50)
Compound O=C(Nc1nc2c(s1)CN(C(=O)c1cc3ccccc3[nH]1)CC2)C1CNC1 [Example 386, N-[5-(1H-indole-2-carbonyl)-4H,5H,6H,7H-[1,3]thiazolo[5,4-c]pyridin-2-yl]azetidine-3-carboxamide hydrochloride] has a pEC50 of 5.00 to 6.00.
